Tests used:
μ-opioid receptor = μ-opioid receptor (Homo sapiens (Human), UniProt P35372); assay: μ-opioid receptor [35S]GTPγS functional assay, U-2 OS cells; format: biochemical; conditions: for Emax: relative to DAMGO, U-2 OS cells
Procedure: μ-Opioid Receptor Functional Assay Procedures: [^35S]GTPγS functional assays were conducted using freshly thawed μ-receptor membranes prepared in-house from a cell line expressing recombinant μ opioid receptor in a HEK-293, CHO or U-2 OS cell background, or purchased from a commercial source (Perkin Elmer, Shelton, Conn.; or DiscovRx, Fremont, Calif.). Assay reactions were prepared by sequentially adding the following reagents to binding buffer (100 mM NaCl, 10 mM MgCl2, 20 mM HEPES, pH 7.4) on ice (final concentrations indicated): membrane protein (0.026 mg/mL), saponin ([…]), GDP ([…]) and [^35S]GTPγS (0.20 nM; Perkin Elmer, Shelton, Conn.). The prepared membrane solution (190 μl/well) was transferred to 96-shallow well polypropylene plates containing 10 μl of 20× concentrated stock solutions of the agonist [D-Ala^2, N-methyl-Phe^4 Gly-ol^5]-enkephalin (DAMGO) prepared in dimethyl sulfoxide (DMSO). Plates were incubated for 30 min at about 25° C. with shaking. Reactions were terminated by rapid filtration onto 96-well Unifilter GF/B filter plates (Perkin Elmer, Shelton, Conn.) using a 96-well tissue harvester (Perkin Elmer, Shelton, Conn.) followed by three filtration washes with 200 μl of ice-cold wash buffer (10 mM NaH2PO4, 10 mM Na2HPO4, pH 7.4). Filter plates were subsequently dried at 50° C. for 2-3 hours. BetaScint scintillation cocktail (Perkin Elmer, Shelton, Conn.) was added (50 μl/well) and plates were counted using a Packard Top-Count for 1 min/well. Data were analyzed using the sigmoidal dose-response curve fitting functions in GraphPad PRISM v. 3.0, or an in-house function for non-linear, sigmoidal dose-response curve-fitting.
μ-Opioid Receptor Functional Data: μ GTP EC50 is the concentration of a compound providing 50% of the maximal response for the compound at a μ-opioid receptor.
μ GTP Emax (%) is the maximal effect elicited by a compound relative to the effect elicited by DAMGO, a standard μ agonist. Generally, the μ GTP Emax (%) value measures the efficacy of a compound to treat or prevent pain or other Conditions.
(§1) The following TABLE 3 provides results on the activity response of certain Compounds of the Invention at the μ- and κ-opioid receptors determined as described above using U-2 OS cells.

κ opioid receptor = κ opioid receptor (Homo sapiens (Human), UniProt P41145); assay: κ-opioid receptor [35S]GTPγS functional assay, U-2 OS cells; format: biochemical; conditions: for Emax: relative to U69,593, U-2 OS cells
Procedure: κ-Opioid Receptor Functional Assay Procedures: Functional [^35S]GTPγS binding assays were conducted as follows. κ opioid receptor membrane solution was prepared by sequentially adding final concentrations of 0.026 μg/μl κ membrane protein (in-house), 10 μg/mL saponin, 3 μM GDP and 0.20 nM [^35S]GTPγS to binding buffer (100 mM NaCl, 10 mM MgCl2, 20 mM HEPES, pH 7.4) on ice. The prepared membrane solution (190 μl/well) was transferred to 96-shallow well polypropylene plates containing 10 μl of 20× concentrated stock solutions of agonist prepared in DMSO. Plates were incubated for 30 min at a temperature of about 25° C. with shaking. Reactions were terminated by rapid filtration onto 96-well Unifilter GF/B filter plates (Perkin Elmer, Shelton, Conn.) using a 96-well tissue harvester (Packard) and followed by three filtration washes with 200 μl ice-cold binding buffer (10 mM NaH2PO4, 10 mM Na2HPO4, pH 7.4). Filter plates were subsequently dried at 50° C. for 2-3 hours. Fifty μl/well scintillation cocktail (Perkin Elmer, Shelton, Conn.) was added and plates were counted in a Packard Top-Count for 1 min/well.
κ-Opioid Receptor Functional Data: κ GTP EC50 is the concentration of a compound providing 50% of the maximal response for the compound at a κ receptor.
κ GTP Emax (%) is the maximal effect elicited by a compound relative to the effect elicited by U69,593.
as §1

| SMILES | EC50 (μ-opioid receptor) | Emax (μ-opioid receptor) | EC50 (κ opioid receptor) | Emax (κ opioid receptor) |
| --- | --- | --- | --- | --- |
| CCN1CC[C@]23C[C@]4(CC[C@@]2(O)[C@H]1Cc1ccc(O)cc13)NC(=O)NC4=O [Compound 29] | 1260 ± 206 nM | 83.8 ± 0.8% | 250 ± 95 nM | 102 ± 2.19% |
| CCN1C(=O)N[C@]2(CC[C@@]3(O)[C@H]4Cc5ccc(O)cc5[C@@]3(CCN4CC)C2)C1=O [Compound 31, (4bR,4′S,8aS,9R)-1′,11-diethyl-3,8a-dihydroxy-5,7,8,8a,9,10-hexahydrospiro[9,4b-(epiminoethano)phenanthrene-6,4′-imidazolidine]-2′,5′-dione] | 1510 ± 309 nM | 88.9 ± 0.94% | 445 ± 197 nM | 102 ± 4.48% |
| CN1CC[C@]23C[C@@]4(CC[C@@]2(O)[C@H]1Cc1ccc(O)cc13)C(=O)NC(=O)N4CC1CC1 [Compound 66, (4bR,4′S,8aS,9R)-3′-(cyclopropylmethyl)-3,8a-dihydroxy-11-methyl-5,7,8,8a,9,10-hexahydrospiro[9,4b-(epiminoethano)phenanthren-6,4′-imidazolidine]-2′,5′-dione] | 76 ± 2.31 nM | 98 ± 1.15% | 4650 ± 302 nM | 103 ± 7.09% |
| C=C(C)CCN1CC[C@]23C[C@]4(CC[C@@]2(O)[C@H]1Cc1ccc(O)cc13)NC(=O)NC4=O [Compound 37, (4bR,4′S,8aS,9R)-3,8a-dihydroxy-11-(3-methylbut-3-en-1-yl)-5,7,8,8a,9,10-hexahydrospiro[9,4b-(epiminoethano)phenanthrene-6,4′-imidazolidine]-2′,5′-dione] | 18.7 ± 2.53 nM | 92 ± 5% | 33.5 ± 9.67 nM | 101 ± 1.76% |
| O=C1NC(=O)[C@@]2(CC[C@@]3(O)[C@H]4Cc5ccc(O)cc5[C@@]3(CCN4CC3CC3)C2)N1CC(F)(F)F [Compound 64, (4S,4b′R,8a′S,9′R)-11′-(cyclopropylmethyl)-3′,8a′-dihydroxy-3-(2,2,2-trifluoroethyl)-8′,8a′,9′,10′-tetrahydro-5′H,7′H-spiro[imidazolidine-4,6′-[9,4b](epiminoethano)-phenantrene]-2,5-dione] | 2.76 ± 0.5 nM | 14 ± 0.58% | 22.2 ± 1.46 nM | 106 ± 2.85% |
| CCN1C(=O)N(CC)[C@]2(CC[C@@]3(O)[C@H]4Cc5ccc(O)cc5[C@@]3(CCN4C)C2)C1=O [Compound 62, (4S,4b′R,8a′S,9′R)-1,3-diethyl-3′,8a′-dihydroxy-11′-methyl-8′,8a′,9′,10′-tetrahydro-5′H,7′H-spiro[imidazolidine-4,6′-[9,4b](epiminoethano)phenantrene]-2,5-dione] | 75.2 ± 3.36 nM | 78 ± 0.58% | 711 ± 37.8 nM | 108 ± 2.52% |
| CCN1C(=O)N[C@]2(CC[C@@]3(O)[C@H]4Cc5ccc(O)cc5[C@@]3(CCN4C)C2)C1=O [Compound 61, (4S,4b′R,8a′S,9′R)-1-ethyl-3′,8a′-dihydroxy-11′-methyl-8′,8a′,9′,10′-tetrahydro-5′H,7′H-spiro[imidazolidine-4,6′-[9,4b](epiminoethano)phenantrene]-2,5-dione] | 39.1 ± 4.82 nM | 103.3 ± 0.88% | 2480 ± 249 nM | 109 ± 6.06% |
| COc1ccc2c(c1)[C@]13CCN(CC=C(C)C)[C@H](C2)[C@]1(O)CC[C@@]1(C3)NC(=O)NC1=O [Compound 21, (4bR,4′S,8aS,9R)-8a-hydroxy-3-methoxy-11-(3-methylbut-2-en-1-yl)-5,7,8,8a,9,10-hexahydrospiro[9,4b-(epiminoethano)phenanthrene-6,4′-imidazolidine]-2′,5′-dione] | > 20000 nM | 5.5% | > 20000 nM | -1% |
| CCN1C(=O)N(Cc2ccc(O)cc2)C(=O)[C@@]12CC[C@@]1(O)[C@H]3Cc4ccc(O)cc4[C@@]1(CCN3CC1CC1)C2 [Compound 48, (4S,4b′R,8a′S,9′R)-11′-(cyclopropylmethyl)-3-ethyl-3′,8a′-dihydroxy-1-(4-hydroxybenzyl)-8′,8a′,9′,10′-tetrahydro-5′H,7′H-spiro[imidazolidin-4,6′-[9,4b](epiminoethano)-phenantrene]-2,5-dione] | 0.82 ± 0.093 nM | 12 ± 0.58% | 2.61 ± 0.3 nM | 105 ± 1.2% |
| O=C1NC(=O)[C@@]2(CC[C@@]3(O)[C@H]4Cc5ccc(O)cc5[C@@]3(CCN4CCc3ccccc3)C2)N1 [Compound 35, (4bR,4′S,8aS,9R)-3,8a-dihydroxy-11-phenethyl-5,7,8,8a,9,10-hexahydrospiro[9,4b-(epiminoethano)phenanthrene-6,4′-imidazolidine]-2′,5′-dione] | 1.23 ± 0.093 nM | 104 ± 3.51% | 270 ± 44.1 nM | 84 ± 1.53% |
| COc1ccc2c(c1)[C@]13CCN(CC(F)F)[C@H](C2)[C@]1(O)CC[C@@]1(C3)NC(=O)NC1=O [Compound 19, (4bR,4′S,8aS,9R)-11-(2,2-difluoroethyl)-8a-hydroxy-3-methoxy-5,7,8,8a,9,10-hexahydrospiro[9,4b-(epiminoethano)phenanthrene-6,4′-imidazolidine]-2′,5′-dione] | > 20000 nM | 1% | > 20000 nM | 52% |
| COc1ccc2c(c1)[C@]13CCN(C/C=C/c4ccccc4)[C@H](C2)[C@]1(O)CC[C@@]1(C3)NC(=O)NC1=O [Compound 24, (4bR,4′S,8aS,9R)-11-cinnamyl-8a-hydroxy-3-methoxy-5,7,8,8a,9,10-hexahydrospiro[9,4b-(epiminoethano)phenanthrene-6,4′-imidazolidine]-2′,5′-dione] | > 20000 nM | 8% | > 20000 nM | 29.7 ± 1.86% |
| O=C1NC(=O)[C@@]2(CC[C@@]3(O)[C@H]4Cc5ccc(O)cc5[C@@]3(CCN4CC3CC3)C2)N1CC1CC1 [Compound 65, (4S,4b′R,8a′S,9′R)-3,11′-bis(cyclopropylmethyl)-3′,8a′-dihydroxy-8′,8a′,9′,10′-tetrahydro-5′H,7′H-spiro[imidazolidine-4,6′-[9,4b](epiminoethano)phenantrene]-2,5-dione] | > 20000 nM | 2% | 36.4 ± 7.08 nM | 92.3 ± 1.45% |
| COc1ccc2c(c1)[C@]13CCN(CCC(C)C)[C@H](C2)[C@]1(O)CC[C@@]1(C3)NC(=O)NC1=O [Compound 22, (4bR,4′S,8aS,9R)-8a-hydroxy-11-isopentyl-3-methoxy-5,7,8,8a,9,10-hexahydrospiro[9,4b-(epiminoethano)phenanthrene-6,4′-imidazolidine]-2′,5′-dione] | 3960 ± 1410 nM | 46 ± 6% | > 20000 nM | 91.3 ± 6.57% |
| O=C1N[C@]2(CC[C@@]3(O)[C@H]4Cc5ccc(O)cc5[C@@]3(CCN4CC3CC3)C2)C(=O)N1Cc1ccc(O)cc1 [Compound 47, (4S,4b′R,8a′S,9′R)-11′-(cyclopropylmethyl)-3′,8a′-dihydroxy-1-(4-hydroxybenzyl)-8′,8a′,9′,10′-tetrahydro-5′H,7′H-spiro[imidazolidine-4,6′-[9,4b](epiminoethano)-phenantrene]-2,5-dione] | 4.66 ± 0.89 nM | 49 ± 1.53% | 1.21 ± 0.11 nM | 104 ± 3.67% |
| COc1ccc2c(c1)[C@]13CCN(CC4CCCCC4)[C@H](C2)[C@]1(O)CC[C@@]1(C3)NC(=O)NC1=O [Compound 23, (4bR,4′S,8aS,9R)-11-(cyclohexylmethyl)-8a-hydroxy-3-methoxy-5,7,8,8a,9,10-hexahydrospiro[9,4b-(epiminoethano)phenanthrene-6,4′-imidazolidine]-2′,5′-dione] | > 20000 nM | 11% | > 20000 nM | 98 ± 8.89% |
